Experimental findings from ChEMBL document CHEMBL1909046, “DrugMatrix in vitro pharmacology data” are described below.

What is called IC50 is the point on the concentration scale where inhibition reaches its midpoint.

Receptor tyrosine-protein kinase erbB-2, sequence (P04626 whole entry): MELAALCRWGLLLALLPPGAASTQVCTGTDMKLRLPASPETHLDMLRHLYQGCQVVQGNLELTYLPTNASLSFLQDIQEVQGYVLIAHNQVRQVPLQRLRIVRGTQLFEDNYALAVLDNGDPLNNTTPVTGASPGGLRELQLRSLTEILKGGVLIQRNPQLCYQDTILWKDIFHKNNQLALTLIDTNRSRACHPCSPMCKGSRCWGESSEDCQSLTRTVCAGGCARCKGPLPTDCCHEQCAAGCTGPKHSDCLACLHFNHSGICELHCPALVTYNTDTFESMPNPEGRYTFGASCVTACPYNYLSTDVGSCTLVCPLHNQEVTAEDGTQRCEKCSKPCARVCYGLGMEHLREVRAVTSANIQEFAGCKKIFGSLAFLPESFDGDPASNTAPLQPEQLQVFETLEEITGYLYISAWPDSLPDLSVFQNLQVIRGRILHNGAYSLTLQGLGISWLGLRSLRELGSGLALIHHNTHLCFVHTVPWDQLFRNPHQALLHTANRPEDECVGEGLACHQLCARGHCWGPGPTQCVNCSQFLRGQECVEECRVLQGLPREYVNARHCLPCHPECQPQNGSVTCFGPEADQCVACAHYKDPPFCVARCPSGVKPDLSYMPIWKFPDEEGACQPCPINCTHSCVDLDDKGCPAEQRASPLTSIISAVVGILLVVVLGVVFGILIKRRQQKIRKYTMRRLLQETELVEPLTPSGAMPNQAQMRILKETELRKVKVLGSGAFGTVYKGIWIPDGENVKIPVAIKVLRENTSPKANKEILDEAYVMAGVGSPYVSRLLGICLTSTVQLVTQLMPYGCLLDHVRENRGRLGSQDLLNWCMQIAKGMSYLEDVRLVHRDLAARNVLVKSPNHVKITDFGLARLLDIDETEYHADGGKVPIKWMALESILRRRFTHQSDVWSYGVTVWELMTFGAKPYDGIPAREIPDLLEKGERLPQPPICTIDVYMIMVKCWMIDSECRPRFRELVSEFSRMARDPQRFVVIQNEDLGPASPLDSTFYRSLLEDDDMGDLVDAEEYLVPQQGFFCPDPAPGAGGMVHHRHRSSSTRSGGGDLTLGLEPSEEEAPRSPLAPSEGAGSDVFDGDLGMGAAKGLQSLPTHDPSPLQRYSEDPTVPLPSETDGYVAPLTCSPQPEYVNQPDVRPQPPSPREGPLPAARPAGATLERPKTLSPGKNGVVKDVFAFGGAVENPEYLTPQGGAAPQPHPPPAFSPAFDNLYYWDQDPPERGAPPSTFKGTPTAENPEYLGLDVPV
Tyrosine-protein kinase Lck, sequence (P06239 whole entry): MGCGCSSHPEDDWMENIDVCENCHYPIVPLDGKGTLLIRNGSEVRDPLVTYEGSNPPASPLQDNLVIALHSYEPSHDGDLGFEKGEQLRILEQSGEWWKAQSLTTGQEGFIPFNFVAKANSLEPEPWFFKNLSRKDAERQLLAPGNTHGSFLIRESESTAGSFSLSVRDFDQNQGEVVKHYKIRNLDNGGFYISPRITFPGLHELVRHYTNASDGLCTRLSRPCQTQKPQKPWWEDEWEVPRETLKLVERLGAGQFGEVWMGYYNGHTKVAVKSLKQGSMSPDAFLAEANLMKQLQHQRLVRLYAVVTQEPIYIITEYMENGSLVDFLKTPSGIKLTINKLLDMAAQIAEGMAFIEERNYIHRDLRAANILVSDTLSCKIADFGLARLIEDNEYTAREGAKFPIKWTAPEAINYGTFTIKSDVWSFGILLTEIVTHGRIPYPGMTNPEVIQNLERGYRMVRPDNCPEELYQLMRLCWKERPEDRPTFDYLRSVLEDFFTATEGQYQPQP

One assay concerns the target Receptor tyrosine-protein kinase erbB-2 (Homo sapiens, UniProt P04626). In words: biochemical. It is filed as cell-based, Insect cells. As to conditions: insect cells.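 Further: inhibition of HER2 kinase enzyme activity, measured with Poly(Glu:Tyr) as the phosphorylation substrate; in other assays of this panel Not Active means under 50% inhibition at 10 µM.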
As for `CCOC(=O)c1ccc(N)cc1` [BENZOCAINE], the IC50 entry is reported as “Not Active”.
As for `COc1ccc([C@@H]2Sc3ccccc3N(CCN(C)C)C(=O)[C@@H]2OC(C)=O)cc1` [DILTIAZEM], the IC50 result is listed as “Not Active”.
With `CC(C)(S)[C@@H](N)C(=O)O` [PENICILLAMINE], the IC50 result is listed as “Not Active”.
Take `CCc1ccc(C(=O)C(C)CN2CCCCC2)cc1` (stereo not drawn) [EPERISONE]: the IC50 result is “Not Active”.
On to `C/C=C1\[C@H]2C=C(C)C[C@]1(N)c1ccc(=O)[nH]c1C2` [HUPERZINE A], for which the IC50 result is on record as “Not Active”.

The same assay, now with this note: read-out: IC50.
As for `c1ccc2c(c1)cc1ccc3cccc4ccc2c1c34`, the IC50 amounted to 41.5 µM.

Tested on in another assay: not listed separately
Briefly: DRUGMATRIX: Platelet-Derived Growth Factor (PDGF) radioligand binding (ligand: [125I] PDGF). Type of assay: cell-based. The settings on record: nih3t3; Not Active = under 50% inhibition at 10 µM.
Turning to `CCOC(=O)c1ccc(N)cc1` [BENZOCAINE], the IC50 entry is “Not Active” and the Ki entry was “Not Active”.
`c1ccc2c(c1)cc1ccc3cccc4ccc2c1c34`: the IC50 result is on record as “Not Active” and the Ki entry is listed as “Not Active”.
In the case of `COc1ccc([C@@H]2Sc3ccccc3N(CCN(C)C)C(=O)[C@@H]2OC(C)=O)cc1` [DILTIAZEM], the IC50 result is recorded as “Not Active” and the Ki entry was “Not Active”.
With `CC(C)(S)[C@@H](N)C(=O)O` [PENICILLAMINE], the IC50 result is given as “Not Active” and the Ki entry was “Not Active”.
For `CCc1ccc(C(=O)C(C)CN2CCCCC2)cc1` (stereo not drawn) [EPERISONE], the IC50 result is on record as “Not Active” and the Ki result is “Not Active”.
`C/C=C1\[C@H]2C=C(C)C[C@]1(N)c1ccc(=O)[nH]c1C2` [HUPERZINE A]: the IC50 entry is on record as “Not Active” and the Ki entry was “Not Active”.

Another assay addresses Tyrosine-protein kinase Lck (Homo sapiens, UniProt P06239). In words: DRUGMATRIX: Protein Tyrosine Kinase, LCK enzyme inhibition (substrate: Poly(Glu:Tyr)). It is filed as cell-based, Insect cells. As to conditions: insect cells; Not Active = under 50% inhibition at 10 µM.
With `CCOC(=O)c1ccc(N)cc1` [BENZOCAINE], the IC50 entry is on record as “Not Active”.
Take `c1ccc2c(c1)cc1ccc3cccc4ccc2c1c34`: the IC50 entry was “Not Active”.
Take `COc1ccc([C@@H]2Sc3ccccc3N(CCN(C)C)C(=O)[C@@H]2OC(C)=O)cc1` [DILTIAZEM]: the IC50 result is recorded as “Not Active”.
Same read-out and setting: with `CC(C)(S)[C@@H](N)C(=O)O` [PENICILLAMINE] the entry was “Not Active”; with `CCc1ccc(C(=O)C(C)CN2CCCCC2)cc1` (stereo not drawn) [EPERISONE], “Not Active”.
For the compound `C/C=C1\[C@H]2C=C(C)C[C@]1(N)c1ccc(=O)[nH]c1C2` [HUPERZINE A], the half-maximal inhibitory concentration (IC50) entry is on record as “Not Active”.

For another assay, the target named is T1, Glucocorticoid receptor (Homo sapiens, UniProt P04150). Further: in other assays of this panel Not Active means under 50% inhibition at 10 µM.
T1 sequence (P04150 whole entry): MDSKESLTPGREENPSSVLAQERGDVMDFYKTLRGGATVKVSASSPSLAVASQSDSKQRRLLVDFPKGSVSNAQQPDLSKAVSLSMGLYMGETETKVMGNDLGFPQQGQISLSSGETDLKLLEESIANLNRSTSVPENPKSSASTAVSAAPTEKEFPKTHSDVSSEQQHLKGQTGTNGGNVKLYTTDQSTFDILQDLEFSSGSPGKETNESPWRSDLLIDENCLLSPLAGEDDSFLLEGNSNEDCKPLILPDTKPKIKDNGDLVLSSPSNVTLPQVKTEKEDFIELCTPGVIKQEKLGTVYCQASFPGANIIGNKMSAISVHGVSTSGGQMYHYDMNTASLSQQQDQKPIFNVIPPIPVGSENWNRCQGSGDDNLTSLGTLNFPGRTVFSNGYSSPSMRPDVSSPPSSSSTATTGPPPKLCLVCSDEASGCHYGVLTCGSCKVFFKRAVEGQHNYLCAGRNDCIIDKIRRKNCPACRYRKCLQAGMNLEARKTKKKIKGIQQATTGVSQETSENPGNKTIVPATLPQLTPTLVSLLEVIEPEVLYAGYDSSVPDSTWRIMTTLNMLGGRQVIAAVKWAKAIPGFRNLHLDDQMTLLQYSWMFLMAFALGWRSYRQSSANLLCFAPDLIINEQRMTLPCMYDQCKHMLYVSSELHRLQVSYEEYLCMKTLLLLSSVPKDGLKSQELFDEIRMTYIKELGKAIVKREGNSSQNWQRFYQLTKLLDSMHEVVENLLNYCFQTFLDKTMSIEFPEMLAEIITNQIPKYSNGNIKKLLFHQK
Test: not given
As to conditions: hela s3.
As to `CCOC(=O)c1ccc(N)cc1` [BENZOCAINE], the IC50 entry is on record as “Not Active”.
Take `c1ccc2c(c1)cc1ccc3cccc4ccc2c1c34`: the IC50 entry was “Not Active”.
Take `COc1ccc([C@@H]2Sc3ccccc3N(CCN(C)C)C(=O)[C@@H]2OC(C)=O)cc1` [DILTIAZEM]: the IC50 entry was “Not Active”.
In the case of `CC(C)(S)[C@@H](N)C(=O)O` [PENICILLAMINE], the IC50 result is reported as “Not Active”.
Consider `CCc1ccc(C(=O)C(C)CN2CCCCC2)cc1` (stereo not drawn) [EPERISONE], for which the IC50 result is reported as “Not Active”.
The same measure, in the same setting: with `C/C=C1\[C@H]2C=C(C)C[C@]1(N)c1ccc(=O)[nH]c1C2` [HUPERZINE A] the entry was “Not Active”.

Another assay has as its target T2, Cholecystokinin receptor type A (Homo sapiens, UniProt P32238). Further: in other assays of this panel Not Active means under 50% inhibition at 10 µM.
T2 sequence (P32238 whole entry): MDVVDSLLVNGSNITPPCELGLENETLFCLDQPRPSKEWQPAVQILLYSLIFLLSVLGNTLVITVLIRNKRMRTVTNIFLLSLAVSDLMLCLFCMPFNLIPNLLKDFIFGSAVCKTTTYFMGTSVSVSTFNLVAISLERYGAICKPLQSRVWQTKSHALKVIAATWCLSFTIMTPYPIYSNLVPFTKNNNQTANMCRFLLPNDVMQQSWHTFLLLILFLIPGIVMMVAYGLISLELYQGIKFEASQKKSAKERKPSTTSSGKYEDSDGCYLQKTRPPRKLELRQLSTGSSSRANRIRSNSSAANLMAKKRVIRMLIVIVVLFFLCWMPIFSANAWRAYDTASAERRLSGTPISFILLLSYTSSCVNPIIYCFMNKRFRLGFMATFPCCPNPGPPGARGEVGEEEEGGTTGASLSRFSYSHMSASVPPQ
Test: not given
It is filed as cell membranes, Membrane. The settings on record: 1321-n1.
Take `CCOC(=O)c1ccc(N)cc1` [BENZOCAINE]: the IC50 entry is reported as “Not Active”.
With `c1ccc2c(c1)cc1ccc3cccc4ccc2c1c34`, the IC50 result was “Not Active”.
With `COc1ccc([C@@H]2Sc3ccccc3N(CCN(C)C)C(=O)[C@@H]2OC(C)=O)cc1` [DILTIAZEM], the half-inhibitory concentration (IC50) result was “Not Active”.
Take `CC(C)(S)[C@@H](N)C(=O)O` [PENICILLAMINE]: the 50% inhibitory concentration (IC50) result is given as “Not Active”.
Same read-out and setting: with `CCc1ccc(C(=O)C(C)CN2CCCCC2)cc1` (stereo not drawn) [EPERISONE] the entry was “Not Active”; with `C/C=C1\[C@H]2C=C(C)C[C@]1(N)c1ccc(=O)[nH]c1C2` [HUPERZINE A], “Not Active”.

Another assay deals with T3, Vasoactive intestinal polypeptide receptor 1 (Homo sapiens, UniProt P32241).
T3 sequence (P32241 whole entry): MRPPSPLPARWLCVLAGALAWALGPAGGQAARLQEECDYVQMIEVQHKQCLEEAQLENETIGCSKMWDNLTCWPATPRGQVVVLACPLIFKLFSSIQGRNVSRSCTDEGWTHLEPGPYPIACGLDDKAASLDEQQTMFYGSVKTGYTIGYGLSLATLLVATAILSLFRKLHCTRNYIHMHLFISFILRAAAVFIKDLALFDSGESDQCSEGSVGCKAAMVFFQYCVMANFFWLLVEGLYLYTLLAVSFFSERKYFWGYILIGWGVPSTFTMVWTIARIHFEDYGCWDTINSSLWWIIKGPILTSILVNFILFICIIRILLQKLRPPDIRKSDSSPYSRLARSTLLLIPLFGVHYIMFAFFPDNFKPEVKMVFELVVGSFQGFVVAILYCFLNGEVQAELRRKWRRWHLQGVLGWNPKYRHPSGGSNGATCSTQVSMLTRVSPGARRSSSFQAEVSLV
Test: not given
It is filed as cell membranes, Membrane. The settings on record: ht-29.
In the case of `CCOC(=O)c1ccc(N)cc1` [BENZOCAINE], the IC50 entry was “Not Active”.
Turning to `c1ccc2c(c1)cc1ccc3cccc4ccc2c1c34`, the IC50 result was “Not Active”.
`COc1ccc([C@@H]2Sc3ccccc3N(CCN(C)C)C(=O)[C@@H]2OC(C)=O)cc1` [DILTIAZEM]: the IC50 entry was “Not Active”.
For the compound `CC(C)(S)[C@@H](N)C(=O)O` [PENICILLAMINE], the IC50 entry was “Not Active”.
As for `CCc1ccc(C(=O)C(C)CN2CCCCC2)cc1` (stereo not drawn) [EPERISONE], the IC50 result is reported as “Not Active”.
On the same count and under the same terms, with `C/C=C1\[C@H]2C=C(C)C[C@]1(N)c1ccc(=O)[nH]c1C2` [HUPERZINE A] the entry was “Not Active”.

In a further assay the target is T4, C-X-C chemokine receptor type 1 (Homo sapiens, UniProt P25024). Further: in other assays of this panel Not Active means under 50% inhibition at 10 µM.
T4 sequence (P25024 whole entry): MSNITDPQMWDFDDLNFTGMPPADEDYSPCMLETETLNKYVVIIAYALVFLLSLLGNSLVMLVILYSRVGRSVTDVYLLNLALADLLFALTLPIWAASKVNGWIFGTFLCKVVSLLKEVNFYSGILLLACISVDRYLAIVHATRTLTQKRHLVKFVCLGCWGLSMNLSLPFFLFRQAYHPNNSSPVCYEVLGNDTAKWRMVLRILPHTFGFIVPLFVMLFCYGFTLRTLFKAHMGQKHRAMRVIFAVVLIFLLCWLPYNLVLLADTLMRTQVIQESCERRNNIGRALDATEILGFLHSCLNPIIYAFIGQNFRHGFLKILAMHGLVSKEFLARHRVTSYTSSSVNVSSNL
Test: not given
Details: not given
For `CCOC(=O)c1ccc(N)cc1` [BENZOCAINE], the 50% inhibitory concentration (IC50) entry is “Not Active”.
Turning to `c1ccc2c(c1)cc1ccc3cccc4ccc2c1c34`, the IC50 entry is on record as “Not Active”.
Regarding `COc1ccc([C@@H]2Sc3ccccc3N(CCN(C)C)C(=O)[C@@H]2OC(C)=O)cc1` [DILTIAZEM], the IC50 entry was “Not Active”.
Turning to `CC(C)(S)[C@@H](N)C(=O)O` [PENICILLAMINE], the IC50 entry is reported as “Not Active”.
As for `CCc1ccc(C(=O)C(C)CN2CCCCC2)cc1` (stereo not drawn) [EPERISONE], the IC50 result was “Not Active”.
For the compound `C/C=C1\[C@H]2C=C(C)C[C@]1(N)c1ccc(=O)[nH]c1C2` [HUPERZINE A], the IC50 entry is given as “Not Active”.
